What was measured:
HIV-IIIb = assay: Test A: Antiviral assay in MT4 cells; type: cell-based, HIV-1; conditions: MT-4 cells infected with HIV-IIIb, 5 days, CellTiter-Glo; for inhibition at 2 µM: Human immunodeficiency virus 1, IIIB, MT4, 120 h, read-out: % inhibition at 2 μM, percent inhibition of virus-induced cell killing, from dose response curve at 2 uM drug
in vitro = assay: in vitro
Outline: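 Cytoprotection read-out: CellTiter-Glo chemiluminescence after 5 days at 37 °C of HIV-IIIb-infected MT-4 cells (m.o.i. 0.003) with compound in 10-point 3-fold dilutions, quadruplicate, 10% FBS. Cytotoxicity (CC50) measured identically without virus.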

[1] = human, uninfected MT-4 cells, CC50 (nM), same protocol as Test A, CellTiter-Glo
[2] = human, CC50 (nM), uninfected MT-4 cells, same protocol as Test A, CellTiter-Glo

SMILES	inhibition at 2 µM (HIV-IIIb) [%]	CC50 at 5 days (in vitro; [1]) [nM]	CC50 at 5 days (in vitro; [2]) [nM]	% inhibition at 2 μM (HIV-IIIb; percent inhibition of virus-induced cell killing, from dose response curve at 2 uM drug) [%]
CC(C)(C)OC(=O)NCc1ccc2[nH]cc(CC(=O)N[C@@H](Cc3cc(F)cc(F)c3)c3ncccc3-c3cccc(C(N)=O)c3)c2c1 [Example 529, (S)-tert-butyl (3-(2-(1-(3-(3-carbamoylphenyl)pyridin-2-yl)-2-(3,5-difluorophenyl)ethylamino)-2-oxoethyl)-1H-indol-5-yl)methylcarbamate]	53	13000	–	–
NC(=O)c1cc(-c2cccnc2[C@H](Cc2cc(F)cc(F)c2)NC(=O)Cc2c[nH]c3c(F)cc(F)cc23)ccc1F [Example 530E, (S)-5-(2-(1-(2-(5,7-difluoro-1H-indol-3-yl)acetamido)-2-(3,5-difluorophenyl)ethyl)pyridin-3-yl)-2-fluorobenzamide]	55	15300	–	–
NC(=O)c1cc(-c2cccnc2[C@H](Cc2cc(F)cc(F)c2)NC(=O)Cc2c[nH]c3cc(F)c(F)cc23)ccc1F [Example 533E, (S)-5-(2-(1-(2-(5,6-difluoro-1H-indol-3-yl)acetamido)-2-(3,5-difluorophenyl)ethyl)pyridin-3-yl)-2-fluorobenzamide]	142	19300	–	–
Cc1cccc2[nH]cc(CC(=O)N[C@@H](Cc3cc(F)cc(F)c3)c3ncccc3-c3ccc(Cl)cc3)c12 [Example 534, (S)—N-(1-(3-(4-chlorophenyl)pyridin-2-yl)-2-(3,5-difluorophenyl)ethyl)-2-(4-methyl-1H-indol-3-yl)acetamide]	29	9820	–	–
NC(=O)c1cc(-c2cccnc2[C@H](Cc2cc(F)cc(F)c2)NC(=O)Cn2nc(C(F)(F)F)c3c2CCC3(F)F)ccc1F [Example 535G, (S)-5-(2-(1-(2-(4,4-difluoro-3-(trifluoromethyl)-5,6-dihydrocyclopenta[c]pyrazol-1(4H)-yl)acetamido)-2-(3,5-difluorophenyl)ethyl)pyridin-3-yl)-2-fluorobenzamide]	9	25300	–	–
Cc1cc2[nH]cc(CC(=O)N[C@@H](Cc3cc(F)cc(F)c3)c3ncccc3-c3cccc(C(N)=O)c3)c2cc1OCc1ccccc1 [Example 536I, (S)-3-(2-(1-(2-(5-(benzyloxy)-6-methyl-1H-indol-3-yl)acetamido)-2-(3,5-difluorophenyl)ethyl)pyridin-3-yl)benzamide]	12	8600	–	–
CC(C)c1nccn1CC(=O)N[C@@H](Cc1cc(F)cc(F)c1)c1ncccc1-c1ccc(F)c(C(N)=O)c1 [Example 537, (S)-5-(2-(2-(3,5-difluorophenyl)-1-(2-(2-isopropyl-1H-imidazol-1-yl)acetamido)ethyl)pyridin-3-yl)-2-fluorobenzamide]	2	> 53200	–	–
CC(C)c1cc(C(C)C)n(CC(=O)N[C@@H](Cc2cc(F)cc(F)c2)c2ncccc2-c2ccc(F)c(C(N)=O)c2)n1 [Example 538, (S)-5-(2-(2-(3,5-difluorophenyl)-1-(2-(3,5-diisopropyl-1H-pyrazol-1-yl)acetamido)ethyl)pyridin-3-yl)-2-fluorobenzamide]	14	23300	–	–
O=C(Cn1nc(C(F)F)cc1C(F)F)N[C@@H](Cc1cc(F)cc(F)c1)c1ncccc1-c1ccc(S(=O)(=O)N2CCOCC2)cc1 [Example 539, (S)-2-(3,5-bis(difluoromethyl)-1H-pyrazol-1-yl)-N-(2-(3,5-difluorophenyl)-1-(3-(4-(morpholinosulfonyl)phenyl)pyridin-2-yl)ethyl)acetamide]	10	20800	–	–
CC(=O)c1cn(CC(=O)N[C@@H](Cc2cc(F)cc(F)c2)c2ncccc2-c2ccc(Cl)cc2)c2ccccc12 [Example 541, (S)-2-(3-acetyl-1H-indol-1-yl)-N-(1-(3-(4-chlorophenyl)pyridin-2-yl)-2-(3,5-difluorophenyl)ethyl)acetamide]	37	–	8150	–
NC(=O)c1cc(-c2cccnc2[C@H](Cc2cc(F)cc(F)c2)NC(=O)Cn2nc(C(F)(F)F)cc2C(F)(F)F)ccc1F [Example 542, (S)-5-(2-(1-(2-(3,5-bis(trifluoromethyl)-1H-pyrazol-1-yl)acetamido)-2-(3,5-difluorophenyl)ethyl)pyridin-3-yl)-2-fluorobenzamide]	1	33600	–	–
CCC(C(=O)N[C@@H](Cc1cc(F)cc(F)c1)c1ncccc1-c1ccc(F)c(C(N)=O)c1)n1cc(C(C)=O)c2ccccc21 (stereo partly drawn) [Example 543, 5-(2-((1S)-1-(2-(3-acetyl-1H-indol-1-yl)butanamido)-2-(3,5-difluorophenyl)ethyl)pyridin-3-yl)-2-fluorobenzamide]	–	–	44000	4
Cc1ccc2ccn(CC(=O)N[C@@H](Cc3cc(F)cc(F)c3)c3ncccc3-c3ccc(F)c(C(N)=O)c3)c2c1 [Example 545, (S)-5-(2-(2-(3,5-difluorophenyl)-1-(2-(6-methyl-1H-indol-1-yl)acetamido)ethyl)pyridin-3-yl)-2-fluorobenzamide]	37	15900	–	–
NC(=O)c1cccc(-c2cccnc2[C@H](Cc2cc(F)cc(F)c2)NC(=O)Cn2ccc3c(F)cc(F)cc32)c1 [Example 546C, (S)-3-(2-(1-(2-(4,6-difluoro-1H-indol-1-yl)acetamido)-2-(3,5-difluorophenyl)ethyl)pyridin-3-yl)benzamide]	15	16800	–	–
Cc1ccc2c(ccn2CC(=O)N[C@@H](Cc2cc(F)cc(F)c2)c2ncccc2-c2ccc(F)c(C(N)=O)c2)c1 [Example 547, (S)-5-(2-(2-(3,5-difluorophenyl)-1-(2-(5-methyl-1H-indol-1-yl)acetamido)ethyl)pyridin-3-yl)-2-fluorobenzamide]	45	13300	–	–
O=C1Cc2cc(-c3cccnc3[C@H](Cc3cc(F)cc(F)c3)NC(=O)Cn3nc(C(F)F)c4c3C(F)(F)CCC4(F)F)ccc2N1 [Example 548D, (S)-2-(3-(difluoromethyl)-4,4,7,7-tetrafluoro-4,5,6,7-tetrahydro-1H-indazol-1-yl)-N-(2-(3,5-difluorophenyl)-1-(3-(2-oxoindolin-5-yl)pyridin-2-yl)ethyl)acetamide]	54	10100	–	–
NCc1ccc2c(CC(=O)N[C@@H](Cc3cc(F)cc(F)c3)c3ncccc3-c3ccc(Cl)cc3)c[nH]c2c1 [Example 549, (S)-2-(6-(aminomethyl)-1H-indol-3-yl)-N-(1-(3-(4-chlorophenyl)pyridin-2-yl)-2-(3,5-difluorophenyl)ethyl)acetamide]	38	10200	–	–
NC(=O)c1cc(-c2cccnc2[C@H](Cc2cc(F)cc(F)c2)NC(=O)Cn2ncc3c(Cl)cc(Cl)cc32)ccc1F [Example 550, (S)-5-(2-(1-(2-(4,6-dichloro-1H-indazol-1-yl)acetamido)-2-(3,5-difluorophenyl)ethyl)pyridin-3-yl)-2-fluorobenzamide]	1	17000	–	–
NC(=O)c1cc(-c2cccnc2[C@H](Cc2cc(F)cc(F)c2)NC(=O)Cn2nc(C(F)(F)F)c3c2C(=O)CC3(F)F)ccc1F [Example 551, (S)-5-(2-(1-(2-(4,4-difluoro-6-oxo-3-(trifluoromethyl)-5,6-dihydrocyclopenta[c]pyrazol-1(4H)-yl)acetamido)-2-(3,5-difluorophenyl)ethyl)pyridin-3-yl)-2-fluorobenzamide]	0	> 53200	–	–
C=Cc1c(C(F)F)nn(CC(=O)N[C@@H](Cc2cc(F)cc(F)c2)c2ncccc2-c2ccc(F)c(C(N)=O)c2)c1C(F)F [Example 553, (S)-5-(2-(1-(2-(3,5-bis(difluoromethyl)-4-vinyl-1H-pyrazol-1-yl)acetamido)-2-(3,5-difluorophenyl)ethyl)pyridin-3-yl)-2-fluorobenzamide]	11	23800	–	–
NC(=O)c1cc(-c2cccnc2[C@H](Cc2cc(F)cc(F)c2)NC(=O)Cn2nc(C(F)F)c(Br)c2C(F)F)ccc1F [Example 555C, (S)-5-(2-(1-(2-(4-bromo-3,5-bis(difluoromethyl)-1H-pyrazol-1-yl)acetamido)-2-(3,5-difluorophenyl)ethyl)pyridin-3-yl)-2-fluorobenzamide]	14	25500	–	–
NCc1ccc2[nH]cc(CC(=O)N[C@@H](Cc3cc(F)cc(F)c3)c3ncccc3-c3cccc(C(N)=O)c3)c2c1 [Example 556, (S)-3-(2-(1-(2-(5-(aminomethyl)-1H-indol-3-yl)acetamido)-2-(3,5-difluorophenyl)ethyl)pyridin-3-yl)benzamide]	83	47800	–	–
CC(C)(C)OC(=O)NCc1ccc2[nH]cc(CC(=O)N[C@@H](Cc3cc(F)cc(F)c3)c3ncccc3-c3ccc(Cl)cc3)c2c1 [Example 557, (S)-tert-butyl (3-(2-(1-(3-(4-chlorophenyl)pyridin-2-yl)-2-(3,5-difluorophenyl)ethylamino)-2-oxoethyl)-1H-indol-5-yl)methylcarbamate]	73	7860	–	–
O=C(Cn1nc(C(F)F)c2c1C(F)(F)CCC2(F)F)N[C@@H](Cc1cc(F)cc(F)c1)c1ncccc1-c1ccc2cc[nH]c(=O)c2c1 [Example 559D, (S)-2-(3-(difluoromethyl)-4,4,7,7-tetrafluoro-4,5,6,7-tetrahydro-1H-indazol-1-yl)-N-(2-(3,5-difluorophenyl)-1-(3-(1-oxo-1,2-dihydroisoquinolin-7-yl)pyridin-2-yl)ethyl)acetamide]	96	23100	–	–
